Numbered stars: 1 amine (or outer) side, 2 acyl side, 3 side chain; on linkers, the order of the positions; unused ones are H or OH. Bridge positions count the residues as written; N and C are the ends. Square brackets hold non-standard residues; d marks the D form. Ends that are not written are not given here. Peptide text beside a SMILES is read from it. ξ: configuration not given here. ξLeu(ψCOCO) = CC(C)CC(N[*:1])C(=O)C(=O)[*:2]; X1 = CSCCC(N[*:1])C(=O)C(=O)[*:2]
Assays:
Huh7 = test: Cell detachment in Huh7 cells; format: cell-based; settings: Huh7 cell line
[1] = system: lymphocytic choriomeningitis virus (LCMV); settings: for IC50: 1 h
MC57G fibroblast cells = settings: for cytotoxic effects: LIVE/DEAD staining, 2 days post-treatment
[2] = system: herpes simplex virus (HSV); settings: for IC50: 42 h; for antiviral activity: HSV, result in words
HeLa = test: Cell detachment in HeLa cells; format: cell-based; settings: HeLa cell line
[3] = molecular target: T1, human neutrophil elastase (Homo sapiens, UniProt P08246); test: Human neutrophil elastase inhibition assay; format: biochemical; settings: for protease inhibitory activity: human neutrophil elastase, result in words
T1 sequence (P08246 30-267): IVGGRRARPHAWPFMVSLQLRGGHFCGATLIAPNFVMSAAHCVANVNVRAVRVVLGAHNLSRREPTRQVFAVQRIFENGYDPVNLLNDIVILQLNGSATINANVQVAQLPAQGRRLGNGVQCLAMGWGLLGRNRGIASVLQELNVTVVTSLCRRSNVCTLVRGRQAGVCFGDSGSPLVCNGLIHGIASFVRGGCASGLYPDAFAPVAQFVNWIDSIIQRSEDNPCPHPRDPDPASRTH

influenza A virus (IAV) = test: Antiviral assay against IAV; format: cell-based, IAV strain A/WSN/1933 (H1N1); settings: result in words
human cathepsin B = human cathepsin B (Homo sapiens, UniProt P07858); test: Cathepsin B inhibition assay; format: biochemical; settings: for protease inhibitory activity: cathepsin B, result in words
chymotrypsin = chymotrypsin (Bos taurus, UniProt P00766); test: Chymotrypsin inhibition assay; format: biochemical; settings: for protease inhibitory activity: chymotrypsin, result in words

| Compound | cell detachment (Huh7) | IC50 [1] [µM] | cytotoxic effects (MC57G fibroblast cells) | concentration at which cell detachment from the assay plates was observed (MC57G fibroblast cells; low levels / slight detachment) | IC50 [2] [µM] | cell detachment (HeLa) | protease inhibitory activity [3] | antiviral activity (influenza A virus (IAV)) | antiviral activity [1] | protease inhibitory activity (human cathepsin B) | protease inhibitory activity (chymotrypsin) | antiviral activity [2] | IC50 [3] [µM] | IC50 (human cathepsin B) [µM] | IC50 (chymotrypsin) [µM] |
| --- | --- | --- | --- | --- | --- | --- | --- | --- | --- | --- | --- | --- | --- | --- | --- |
| CC[C@H](C)[C@H](N)C(=O)N[C@@H](CC(N)=O)C(=O)N[C@@H](C)C(=O)N[C@H](C(=O)NCC(=O)N[C@@H](CCC(N)=O)C(=O)N[C@@H](CCCNC(=N)N)C(=O)N[C@H](C(=O)N[C@@H](CC(=O)O)C(=O)N[C@@H](CO)C(=O)N[C@@H](CO)C(=O)N[C@H](C(=O)N[C@@H](Cc1ccccc1)C(=O)N[C@H](C(=O)N[C@@H](Cc1c[nH]cn1)C(=O)N[C@H]1CSSC[C@@H](C(=O)NCC(=O)N[C@H](C(=O)N[C@@H](C)C(=O)NC(CC(C)C)C(=O)C(=O)NCC(=O)N[C@@H](CO)C(=O)N[C@H](C(=O)N[C@H](C(=O)N[C@@H](CC(=O)O)C(=O)N2CCC[C@H]2C(=O)N[C@@H](Cc2c[nH]cn2)C(=O)N[C@@H](CCCNC(=N)N)C(=O)N[C@@H](Cc2ccccc2)C(=O)N[C@@H](CC(=O)O)C(=O)N[C@@H](CCSC)C(=O)N[C@@H](CC(C)C)C(=O)N2CCC[C@H]2C(=O)O)[C@@H](C)CC)C(C)C)C(C)C)NC(=O)[C@H](C(C)C)NC(=O)[C@H](Cc2ccccc2)NC(=O)[C@H](Cc2ccccc2)NC(=O)[C@H](CC(=O)O)NC1=O)[C@@H](C)O)C(C)C)[C@@H](C)CC)[C@@H](C)O (stereo partly shown) [Compound 4, RasA*-Tyn] (H-INATGQRIDSSVFTHCDFFVCGVA[ξLeu(ψCOCO)]GSVIDPHRFDMLP-OH; disulfide 16-21; N-terminus assumed) | not detected | 15.2 | no significant cytotoxic effects | above 50 µM | 28.8 | not detected |  |  |  |  |  |  |  |  |  |
| CC[C@H](C)[C@H](N)C(=O)N[C@@H](CC(N)=O)C(=O)N[C@@H](C)C(=O)N[C@H](C(=O)NCC(=O)N[C@@H](CCC(N)=O)C(=O)N[C@@H](CCCNC(=N)N)C(=O)N[C@H](C(=O)N[C@@H](CC(=O)O)C(=O)N[C@@H](CO)C(=O)N[C@@H](CO)C(=O)N[C@H](C(=O)N[C@@H](Cc1ccccc1)C(=O)N[C@H](C(=O)N[C@@H](Cc1c[nH]cn1)C(=O)N[C@H]1CSSC[C@@H](C(=O)NCC(=O)N[C@H](C(=O)N[C@@H](C)C(=O)N[C@@H](CC(C)C)C(=O)N[C@@H](Cc2ccc(O)cc2)C(=O)NCC(=O)N[C@@H](CO)C(=O)N[C@H](C(=O)N[C@H](C(=O)N[C@@H](CC(=O)O)C(=O)N2CCC[C@H]2C(=O)N[C@@H](Cc2c[nH]cn2)C(=O)N[C@@H](CCCNC(=N)N)C(=O)N[C@@H](Cc2ccccc2)C(=O)N[C@@H](CC(=O)O)C(=O)N[C@@H](CCSC)C(=O)N[C@@H](CC(C)C)C(=O)N2CCC[C@H]2C(=O)O)[C@@H](C)CC)C(C)C)C(C)C)NC(=O)[C@H](C(C)C)NC(=O)[C@H](Cc2ccccc2)NC(=O)[C@H](Cc2ccccc2)NC(=O)[C@H](CC(=O)O)NC1=O)[C@@H](C)O)C(C)C)[C@@H](C)CC)[C@@H](C)O [Compound 6, RasA*] (H-INATGQRIDSSVFTHCDFFVCGVALYGSVIDPHRFDMLP-OH; disulfide 16-21; N-terminus assumed) |  | > 200 |  |  | > 200 |  | did not exhibit any protease inhibitory and antiviral activity | did not exhibit any protease inhibitory and antiviral activity | did not exhibit any protease inhibitory and antiviral activity | did not exhibit any protease inhibitory and antiviral activity | did not exhibit any protease inhibitory and antiviral activity | did not exhibit any protease inhibitory and antiviral activity |  |  |  |
| GTVTGSILTPIDYGCFNPFLCSVAMYGGVIDPIRFPNAWREL (disulfide 15-21) [Compound 5, G-RcsA*] |  | > 200 |  |  | > 200 |  | did not exhibit any protease inhibitory and antiviral activity | did not exhibit any protease inhibitory and antiviral activity | did not exhibit any protease inhibitory and antiviral activity | did not exhibit any protease inhibitory and antiviral activity | did not exhibit any protease inhibitory and antiviral activity | did not exhibit any protease inhibitory and antiviral activity |  |  |  |
| GTVTGSILTPIDYGCFNPFLCSVA[X1]GGVIDPIRFPNAWREL (disulfide 15-21) [Compound 3, G-RcsA*-Tyn] |  | 37 | no significant cytotoxic effects |  | 69.7 |  |  |  |  |  |  |  | 5.76 | 3.74 | 9.2 |
